The record followed here is patent US20120184493A1, “DERMAL FORMULATIONS OF DP2 RECEPTOR ANTAGONISTS” (PANMIRA PHARMACEEUTICALS, LLC, priority 2009, published 2012).

In assay [1] the target is T1, human DP1 receptor (Homo sapiens, UniProt Q13258).
T1 construct: tissue Biological Specialty Corporation; host or cells: human platelets, membrane preparation
T1 sequence (Q13258 1-359): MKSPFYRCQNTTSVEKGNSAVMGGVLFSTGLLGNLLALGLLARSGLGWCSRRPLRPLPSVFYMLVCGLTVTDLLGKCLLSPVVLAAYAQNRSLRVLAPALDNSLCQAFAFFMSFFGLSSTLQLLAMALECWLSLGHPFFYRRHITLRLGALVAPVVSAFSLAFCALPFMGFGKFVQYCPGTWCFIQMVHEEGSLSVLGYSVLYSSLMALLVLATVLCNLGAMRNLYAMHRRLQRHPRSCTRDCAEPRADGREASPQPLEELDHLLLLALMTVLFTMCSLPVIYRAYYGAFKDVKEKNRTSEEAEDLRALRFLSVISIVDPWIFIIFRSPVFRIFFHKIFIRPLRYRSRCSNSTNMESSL
The assay can be described thus: DP1 radioligand membrane binding assay using [3H]BWA868C. The settings on record: human platelet membranes, 2 nM [3H]BWA868C; read-out: hDP1. As to the method:
The ability of a compound to bind to the human DP1 receptor was evaluated via a radioligand membrane binding assay using the DP1 selective synthetic ligand [^3H]BWA868C. Packed human platelets (Biological Specialty Corporation), were resuspended in 6 volumes of Hepes/HBSS buffer (10 mM Hepes, 1 mM DTT in Hanks Balanced Salt Solution (HBSS)), lysed and centrifuged at 75,000×g to pellet the membranes. Membranes were resuspended in Hepes/HBSS buffer to approximately 12 mg protein/ml. Membranes (20 μg protein/well) are incubated in 96-well plates with 2 nM [^3H]BWA868C and test compound in Assay Buffer (50 mM Hepes, 10 mM MnCl2, 1 mM EDTA, plus or minus 0.2% human serum albumin, pH 7.4) for 60 minutes at room temperature. The reactions are terminated by rapid filtration through Whatman GF/C glass fibre filter plates. The filter plates were pre-soaked in 0.33% polethylenimine for 30 minutes at room temperature then washed in Wash Buffer (50 mM Hepes, 0.5 M NaCl pH 7.4) prior to harvesting. After harvesting, the filter plates are washed 3 times with 1 ml cold Wash Buffer then dried. Scintillant is then added to the plates and the radioactivity retained on the filters is determined on a Packard TopCount (Perkin Elmer). Specific binding is determined as total radioactive binding minus non-specific binding in the presence of 10 μM BW A868C. IC50s were determined using GraphPad prism analysis of drug titration curves.

Assay [2] addresses T2, human DP2 receptor (Homo sapiens, UniProt Q9Y5Y4).
T2 construct: expressed in transfected cells
T2 sequence (Q9Y5Y4 1-395): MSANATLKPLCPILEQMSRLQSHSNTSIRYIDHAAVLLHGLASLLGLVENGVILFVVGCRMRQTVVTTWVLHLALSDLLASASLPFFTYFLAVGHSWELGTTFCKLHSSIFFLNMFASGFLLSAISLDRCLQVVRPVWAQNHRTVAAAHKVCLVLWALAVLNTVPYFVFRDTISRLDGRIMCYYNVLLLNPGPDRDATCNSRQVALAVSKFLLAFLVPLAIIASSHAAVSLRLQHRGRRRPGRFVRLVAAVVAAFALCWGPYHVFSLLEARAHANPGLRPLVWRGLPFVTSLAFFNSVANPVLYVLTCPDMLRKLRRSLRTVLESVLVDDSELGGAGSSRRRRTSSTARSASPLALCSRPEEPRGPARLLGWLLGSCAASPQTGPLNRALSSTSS
The assay can be described thus: DP2/CRTH2 radioligand binding assay using [3H]PGD2. The settings on record: membranes of HEK293 cells expressing recombinant human DP2, 1 nM [3H]PGD2; read-out: hDP2. The method, then:
The ability of a compound to bind to the human DP2 receptor is assessed via a radioligand binding assay using [^3H]PGD2. HEK293 cells stably expressing recombinant human DP2 are resuspended in 10 mM Hepes, 7.4 containing 1 mM DTT, lysed and centrifuged at 75,000×g to pellet the membranes. The membranes are resuspended in 10 mM Hepes, 7.4 containing 1 mM DTT and 10% glycerol to approximately 5 mg protein/ml. Membranes (2-10 μg protein/well) are incubated in 96-well plates with 1 nM [^3H]PGD2 and test compound in Assay Buffer (50 mM Hepes, 10 mM MnCl2, 1 mM EDTA, plus or minus 0.2% human serum albumin, pH 7.4) for 60 minutes at room temperature. The reactions are terminated by rapid filtration through Whatman GF/C glass fibre filter plates. The filter plates were pre-soaked in 0.33% polythylenimine for 30 minutes at room temperature then washed in Wash Buffer (50 mM Hepes, 0.5 M NaCl pH 7.4) prior to harvesting. After harvesting, the filter plates are washed 3 times with 1 ml cold Wash Buffer then dried. Scintillant is then added to the plates and the radioactivity retained on the filters is determined on a Packard TopCount (Perkin Elmer). Specific binding is determined as total radioactive binding minus non-specific binding in the presence of 10 μM PGD2. IC50s were determined using GraphPad prism analysis of drug titration curves.

Structures are written as SMILES.

For the molecule `CCN(Cc1cc(C(F)(F)F)ccc1-c1cncc(CC(=O)O)c1)C(=O)OCc1ccccc1` [(5-{2-[(N-benzyloxycarbonyl-N-ethyl-amino)-methyl]-4-trifluoromethyl-phenyl}-pyridin-3-yl)-acetic acid], the IC50 was above 1000 nM in assay [1] and below 300 nM in assay [2].

Turning to `CCOc1ccc(-c2ccc(-c3cc(CC(=O)O)ccc3OC)c(CN(CC)C(=O)C3CC3)c2)cn1` [[2′-[(N-cyclopropanecarbonyl-N-ethyl-amino)-methyl]-4′-(6-ethoxy-pyridin-3-yl)-6-methoxy-biphenyl-3-yl]-acetic acid], the IC50 in assay [1] was above 1000 nM.

On to `CN(C1CCc2c(c3ncccc3n2CC(=O)O)C1)S(=O)(=O)c1ccc(F)cc1` (stereo not shown) [{8-[(4-fluoro-benzenesulfonyl)-methyl-amino]-6,7,8,9-tetrahydro-pyrido[3,2-b]indol-5-yl}-acetic acid], for which the IC50 was above 1000 nM in assay [1] and below 300 nM in assay [2].

As to `COc1ccc(CC(=O)O)cc1Oc1ccc(NC(=O)C(C)(C)C)cc1CSC(C)(C)C` [{3-[2-tert-Butylsulfanylmethyl-4-(2,2-dimethyl-propionylamino)-phenoxy]-4-methoxy-phenyl}-acetic acid], the IC50 in assay [1] is above 1000 nM; in assay [2], below 300 nM.
